Source: patent US5817640A (Gensia Pharmaceuticals, priority 1995, dated 1998)
Entries after “also recorded” stand apart in the source; their conditions may differ.

Key:
[1] = system: patients undergoing coronary artery bypass graft (CABG) surgery; assay: Difficulty in weaning from cardiopulmonary bypass (Phase 2); type: in vivo, human; details: for Weaning time (cross-clamp removal to termination of bypass): in min (unit assumed); for Weaning difficulty: balloon pump, number of patients / Weaning difficulty: return to bypass, number of patients: placebo 1, p=0.6; for Weaning difficulty: pacemaker, number of patients: placebo 2; for Weaning difficulty: pacemaker, number of patients / Weaning difficulty: other, number of patients / Weaning difficulty: other / Weaning difficulty: pacemaker: p=0.7; for Weaning difficulty: other, number of patients: placebo 5; for Weaning difficulty: vasopressors, number of patients / Weaning difficulty: vasopressors: p=0.19; for Patients with any difficulty weaning, number: placebo 13; for Weaning difficulty: other / Weaning difficulty: pacemaker: placebo […]
Protocol: During surgery, anesthesia was maintained by continuous infusion of fentanyl and midazolam. Routine clinical parameters were recorded using standard operating room monitoring equipment. Continuous 2-lead Holter ECG and TEE data were recorded. Standard surgical procedures (e.g., aorta cross-clamping, crystalloid cardioplegia, cardio-pulmonary bypass, hypothermia) were used. Anastomoses were constructed, aorta cross-clamp removed and patients were discontinued from bypass when body temperature was 37° C. The quality of anastomosis was judged by the surgeon. Difficulty in weaning from bypass was judged by need for one or more of the following: pacemaker, return to bypass, balloon pump or vasopressor administration. Hemodynamic measurements, including heart rate, arterial blood pressure, pulmonary capillary wedge pressure and cardiac output, were recorded before sternotomy, 15 and 30 min after bypass and upon chest closure. Radial artery and pulmonary artery pressures, myocardial and whole body temperature, O2 saturation, end-tidal CO2 and arterial blood gases were measured, and ECG recordings were obtained as clinically indicated. Hemodynamic variables (blood pressure, heart rate, pulmonary capillary wedge pressure) were controlled within 20% of baseline using prescribed regimens.
The incidence of adverse clinical outcomes, such as cardiac death (death of patient attributable to primarily cardiac causes, non-fatal transmural MI (as measured by the appearance of a new Q-wave on 12-lead ECG plus a CK-MB value of ≥50 units), non-transmural MI (CK-MB value of ≥50 units), congestive heart failure (low cardiac output requiring intra-aortic balloon pump or left ventricular assist device) or life-threatening dysrhythmia (ventricular fibrillation, or ventricular tachycardia requiring cardioversion or drug treatment) was compared between the placebo and treatment groups. For the diagnosis of myocardial infarction, ECG tracings and CK-MB values were assessed centrally by observers blinded to treatment. The difficulty of weaning the patient from bypass, if any, was compared between placebo and treatment groups by noting need for one or more of the following: pacemaker, return to bypass, balloon pump or use of vasopressors.
8. Difficulty in Weaning. Patients were considered to have difficulty in weaning if they needed one or more of the following interventions: pacemaker, return to bypass, balloon pump or use of vasopressors. The number of patients receiving each of the above interventions was analyzed using a X^2 and Fisher's exact test, as was the number of patients classified as having difficulty in weaning. In addition, the time to weaning (defined as time from cross-clamp removal to end of bypass) in the patients experiencing difficulty were compared by a 1-way analysis of variance.
As noted, patients were determined as being difficult to remove from cardiopulmonary bypass if they required one or more of the following interventions: insertion of a pacemaker, return to bypass, use of a balloon pump or administration of vasopressors, or another intervention which the investigation determines is indicative of difficulty in weaning. […] When a combination of the high and low dose groups were compared to placebo (Table 9b), the reduced need for vasopressor support approached statistical significance (p=0.08). […] There were no differences in any of the weaning difficulty parameters discussed above between the high and low dose groups (Table 9c).

[2] = Uric acid monitoring, Phase 3 CABG trial; type: in vivo, human; details: treated patients, data not shown
Source text: The uric acid concentrations of all patients in the study were monitored.

NC(=O)c1ncn([C@@H]2O[C@H](CO)[C@@H](O)[C@H]2O)c1N [AICA riboside, 5-amino-1-β-D-ribofuranosyl-imidazole-4-carboxamide]
Weaning time (cross-clamp removal to termination of bypass) ([1]; 0.05 mg/kg/min, n=41, all patients, placebo 23 +/- 2.9): 20 +/- 2.2 | Weaning difficulty: balloon pump, number of patients ([1]; 0.05 mg/kg/min, n=41): 0 patients | Weaning difficulty: return to bypass, number of patients ([1]; 0.05 mg/kg/min, n=41): 0 patients | Weaning difficulty: pacemaker, number of patients ([1]; 0.05 mg/kg/min, n=41): 4 patients | Weaning difficulty: other, number of patients ([1]; 0.05 mg/kg/min, n=41): 3 patients | Weaning difficulty: vasopressors, number of patients ([1]; 0.05 mg/kg/min, n=41, placebo 8): 3 patients | Patients with any difficulty weaning, number ([1]; 0.05 mg/kg/min, n=41, p=0.17): 7 patients | Weaning difficulty: vasopressors ([1]; 0.05 mg/kg/min, n=41, placebo 21.6%): 7.3% | Patients with any difficulty weaning ([1]; 0.05 mg/kg/min, n=41, placebo 35%, p=0.17): 17% | Weaning difficulty: other ([1]; 0.05 mg/kg/min, n=41): 7.3% | Weaning difficulty: pacemaker ([1]; 0.05 mg/kg/min, n=41): 9.8% | Weaning time (cross-clamp removal to termination of bypass) ([1]; 0.05 mg/kg/min, patients with difficulty, placebo 31.8 +/- 6.3): 20 +/- 4.6 | Weaning time (cross-clamp removal to termination of bypass) ([1]; 0.1 mg/kg/min, n=34, all patients, placebo 23 +/- 2.9): 17 +/- 1.8 | Weaning difficulty: balloon pump, number of patients ([1]; 0.10 mg/kg/min, n=35): 0 patients | Weaning difficulty: return to bypass, number of patients ([1]; 0.10 mg/kg/min, n=35): 0 patients | Weaning difficulty: pacemaker, number of patients ([1]; 0.10 mg/kg/min, n=35): 4 patients | Weaning difficulty: other, number of patients ([1]; 0.10 mg/kg/min, n=35): 4 patients | Weaning difficulty: vasopressors, number of patients ([1]; 0.10 mg/kg/min, n=35, placebo 8): 4 patients | Patients with any difficulty weaning, number ([1]; 0.10 mg/kg/min, n=35, p=0.17): 8 patients | Weaning difficulty: vasopressors ([1]; 0.10 mg/kg/min, n=35, placebo 21.6%): 11.4% | Patients with any difficulty weaning ([1]; 0.10 mg/kg/min, n=35, placebo 35%, p=0.17): 23% | Weaning difficulty: other ([1]; 0.10 mg/kg/min, n=35): 11.4% | Weaning difficulty: pacemaker ([1]; 0.10 mg/kg/min, n=35): 11.4% | Weaning time (cross-clamp removal to termination of bypass) ([1]; 0.1 mg/kg/min, patients with difficulty, placebo 31.8 +/- 6.3): 20.8 +/- 4.2 | Patients with any difficulty weaning, number ([1]; 0.05 + 0.10 mg/kg/min combined, n=76, p=0.06): 15 patients | Patients with any difficulty weaning ([1]; 0.05 + 0.10 mg/kg/min combined, n=76, placebo 35.1%, p=0.06): 19.7% | Vasopressors required, number of patients ([1]; 0.05 + 0.10 mg/kg/min combined, placebo 8, p=0.08): 7 patients | Vasopressors required ([1]; 0.05 + 0.10 mg/kg/min combined, placebo 21.6%, p=0.08): 9.2% | Need for vasopressor support vs placebo ([1]; low and high dose groups, p=0.19 separately, p=0.08 combined): strong trend towards a reduced need for vasopressor support; also recorded: less likely to receive vasopressor assistance | Weaning difficulty vs placebo ([1]; p=0.17 when compared separately, p=0.06 combined dose groups): towards a reduction in weaning difficulty in the drug treated groups | Crystalluria [2]: no clinically significant crystalluria | Plasma uric acid concentrations vs normal range [2]: generally remained in, or close to, the normal range | Uric acid concentrations, dose relation [2]: clear dose related increase in uric acid concentrations
